Data set [1] is described as follows: Monkey bleeding liability study: surgical blood loss from femoral incision site. Type of data set: in vivo, cynomolgus monkeys. The settings on record: anesthetized monkeys, single oral dose (SCH 530348 1 mg/kg, ASA 10 mg/kg, clopidogrel 2 mg/kg), mean ± SEM. How it is done:
Any novel antiplatelet agent should optimally avoid incremental bleeding risk relative to the current standard of care. The bleeding risk of SCH 530348 was evaluated in anesthetized cynomoigus monkeys in which SCH 530348 was administered alone and along with aspirin and clopidogrel. Bleeding assessment was conducted following administration of single doses of SCH 530348 (1 mg/kg) and/or aspirin (10 mg/kg, ASA) and clopidogrel (2 mg/kg). Four groups of monkeys were dosed orally with either vehicle (the medium used to dissolve the drug, 0.4% methylcellulose) or drug (n=5-6/group): Group I: vehicle, Group II: SCH 530348 (1 mg/kg), Group III ASA (10 mg/kg) plus clopidogrel (2 mg/kg) and Group IV: combination of SCH 530348, ASA plus clopidogrel. Doses of various drugs used inhibited their respective platelet pathways by >90% as assessed by ex-vivo platelet aggregation in whole blood. Two hours after dosing, animals were anesthetized and bleeding risk was assessed by forearm template bleeding time and surgical blood loss from a femoral incision site.
Surgical blood loss was assessed as follows. The femoral artery and femoral vein on the hind leg of the anesthetized monkey were surgically isolated by cutting with a scalpel blade. […] A small sample was read in a spectrophotometer (at […]) and the volume of blood loss was derived from a standard curve. […]

A further data set has as its system dog Purkinje fibers. It counts as cell-based.
The conditions of data set [2]: monkey, in vivo.
Data set [3] is described as follows: Laboratory safety tests and ECGs at doses and durations studied to date. It counts as in vivo. The settings on record: doses and treatment duration studied to date. An excerpt: Overall, the study drug was generally well-tolerated.
In data set [4] the test system is platelets. The experiment in a line: Pharmacodynamic substudy: TRAP induced platelet aggregation (light aggregometry). Type of data set: in vivo, humans. Particulars: for Tested population achieving clinically relevant inhibition of platelet aggregation: thirty and sixty days; for Maximum inhibition of TRAP-induced platelet aggregation: 1-2 hours post dose. How it is done: (§1) A pharmacodynamic substudy incorporating light aggregometry was performed under stringent physiologic conditions and read by a central core laboratory. […] The term “therpeutically effective amount of a thrombin receptor antagonist” will be understood to mean that quantity of the thrombin receptor antagonist sufficient to achieve at least 80% inhibition of TRAP mediated platelet aggregation.

The subject of data set [5] is platelets. As to the kind of experiment: ADP-induced platelet aggregation. Particulars: loading and maintenance doses. Type of data set: in vivo, humans. How it is done: as §1
(§2) Similarly, there is no effect on arachidonic acid (“AA”) -induced platelet aggregation (see FIGS. 16 and 17) or collagen-induced platelet aggregation (see FIGS. 18-21).

In data set [6] the test system is platelets. As to the kind of experiment: Collagen-induced platelet aggregation. Type of data set: in vivo, humans. Particulars: collagen 5 and 50 μg/ml; loading and maintenance doses. The method, then: as §1, §2
A further data set in a line: Coagulation parameters. Also noted: species or system humans. The settings on record: in vivo.
From the text: as §2

For data set [7] the following is noted: in vivo.
From the text: The Phase 2 study was a randomized, double-blind, placebo-controlled, multicenter, dose-escalation study in men and women with symptoms of coronary heart disease undergoing nonurgent PCI.

Consider `CCOC(=O)N[C@@H]1CC[C@@H]2[C@@H](C1)C[C@H]1C(=O)O[C@H](C)[C@H]1[C@H]2/C=C/c1ccc(-c2cccc(F)c2)cn1.O=S(=O)(O)O` [SCH 530348, ethyl [(1R,3aR,4aR,6R,8aR,9S,9aS)-9-[(E)-2-[5-(3-fluorophenyl)-2-pyridinyl]ethenyl]-dodecahydro-1-methyl-3-oxonaphtho[2,3-c]furan-6-yl] carbamate bisulfate], for which the Surgical blood loss in data set [1] stood at 0.18 mL/h; in [1] (listed as Group II), 0.18 ± 0.03 mL/h. Also, the “QT prolongation based on action potential duration” value with dog Purkinje fibers is “no evidence of QT prolongation”. Also, the QT prolongation result in [2] is “no evidence of QT prolongation”. The “Changes in laboratory safety tests or ECGs” value in [3] is “no significant treatment-related changes or abnormalities”. Besides, the “Tested population achieving clinically relevant inhibition of platelet aggregation” value with platelets [4] (1.0 mg/day maintenance) and in the data set on platelets [4] (2.5 mg/day maintenance) was 100% each time. The “Maximum inhibition of TRAP-induced platelet aggregation” value in the data set on platelets [4] (20 mg) and in the data set with platelets [4] (40 mg) was over 80% in each case. For the same compound, the “Time to therapeutically effective levels (at least 80%) of platelet inhibition” value in the data set on platelets [4] (40 mg loading dose) is “in as little as one hour”. Moreover, the “Tested population with clinically relevant platelet aggregation inhibition within 2 hours” value with platelets [4] (40 mg loading dose (only this dose)) is “more than 90%”. Besides, the “Patients with ≧80% inhibition of TRAP induced platelet aggregation” value in the data set with platelets [4] (40 mg loading dose, 1 hour) is on record as “Approximately 68%”; in the data set on platelets [4] (40 mg loading dose, 1.5 hours), about 82%; in the data set with platelets [4] (40 mg loading dose, 2 hours), about 96%. In the data set on platelets [4] (all three maintenance doses (0.5, 1.0, 2.5 mg)), the “Inhibition of platelet aggregation at thirty and sixty days” value is given as “clinically relevant inhibition of platelet aggregation”. In addition, the “Inhibition of TRAP-induced platelet aggregation, dose dependency” value with platelets [4] (in vivo) is given as “dose-related inhibition”. The “Inhibition of TRAP-induced platelet aggregation” value in the data set with platelets [4] (multiple doses of 1 mg/day) and with platelets [4] (single doses as low as 5 mg) was “significantly inhibited” in each case. The “Effect on ADP-induced platelet aggregation” value with platelets [5] is reported as “no effect”. Also, the “Effect on collagen-induced platelet aggregation” value in the data set with platelets [6] was “no effect”. In addition, the Affecting coagulation parameters result in “Coagulation parameters” was “without”. Besides, the “Discontinuation of study drug for any adverse event, patients (%)” value in data set [7] is given as 6%. Besides, the “Patients completing the sixty day treatment period (%)” value in data set [7] amounted to 84%.

The record behind these values is patent publication US20080234236A1, “REDUCTION OF ADVERSE EVENTS AFTER PERCUTANEOUS INTERVENTION BY USE OF A THROMBIN RECEPTOR ANTAGONIST” (priority 2007, published 2008).
